Data published in article doi:10.1101/2024.08.13.607785v1 (biorxiv, 2024).
Read-outs that look alike come from different tables or passages of the source.

Columns and labels:
Assay in all cases: biochemical
Parameters in all cases: species or system human cell line lysate
[1] = molecular target: Mitogen-activated protein kinase 1 ; MAPK1 ; P28482 (Homo sapiens, UniProt P28482)
[2] = molecular target: Serine/threonine-protein kinase 17B ; STK17B ; O94768 (Homo sapiens, UniProt O94768)
[3] = molecular target: Aurora kinase C ; AURKC ; Q9UQB9 (Homo sapiens, UniProt Q9UQB9)
[4] = molecular target: Kinase suppressor of Ras 1 ; KSR1 ; Q8IVT5 (Homo sapiens, UniProt Q8IVT5)
[5] = molecular target: Serine/threonine-protein kinase 35 ; STK35 ; Q8TDR2 (Homo sapiens, UniProt Q8TDR2)
[6] = molecular target: Serine/threonine-protein kinase N1 ; PKN1 ; Q16512 (Homo sapiens, UniProt Q16512)
[7] = molecular target: Tyrosine-protein kinase SYK ; SYK ; P43405 (Homo sapiens, UniProt P43405)
[8] = molecular target: Protein kinase C iota type ; PRKCI ; P41743 (Homo sapiens, UniProt P41743)
[9] = molecular target: Tyrosine-protein kinase CSK ; CSK ; P41240 (Homo sapiens, UniProt P41240)
[10] = molecular target: Serine/threonine-protein kinase LATS1 ; LATS1 ; O95835 (Homo sapiens, UniProt O95835)
[11] = molecular target: Serine-protein kinase ATM ; ATM ; Q13315 (Homo sapiens, UniProt Q13315)
[12] = molecular target: Tyrosine-protein kinase HCK ; HCK ; P08631 (Homo sapiens, UniProt P08631)
[13] = molecular target: Casein kinase I isoform epsilon ; CSNK1E ; P49674 (Homo sapiens, UniProt P49674)
[14] = molecular target: Pyridoxal kinase ; PDXK ; O00764 (Homo sapiens, UniProt O00764)
[15] = molecular target: Serine/threonine-protein kinase TBK1 ; TBK1 ; Q9UHD2 (Homo sapiens, UniProt Q9UHD2)
[16] = molecular target: MAP/microtubule affinity-regulating kinase 4 ; MARK4 ; Q96L34 (Homo sapiens, UniProt Q96L34)
[17] = molecular target: Fructosamine-3-kinase ; FN3K ; Q9H479 (Homo sapiens, UniProt Q9H479)
[18] = molecular target: Isoform 6 of Tyrosine-protein kinase ABL2 ; ABL2 ; P42684-6 (Homo sapiens, UniProt P42684)
[19] = molecular target: Ribosomal protein S6 kinase alpha-6 ; RPS6KA6 ; Q9UK32 (Homo sapiens, UniProt Q9UK32)
[20] = molecular target: Microtubule-associated serine/threonine-protein kinase 2 ; MAST2 ; Q6P0Q8 (Homo sapiens, UniProt Q6P0Q8)
[21] = molecular target: Non-receptor tyrosine-protein kinase TNK1 ; TNK1 ; Q13470 (Homo sapiens, UniProt Q13470)
[22] = molecular target: Bone morphogenetic protein receptor type-1A ; BMPR1A ; P36894 (Homo sapiens, UniProt P36894)
[23] = molecular target: Mitogen-activated protein kinase 11 ; MAPK11 ; Q15759 (Homo sapiens, UniProt Q15759)
[24] = molecular target: Serine/threonine-protein kinase ULK3 ; ULK3 ; Q6PHR2 (Homo sapiens, UniProt Q6PHR2)
[25] = read-out: BAY-1143572 (10 µM) / %Intensity relative to DMSO
[26] = read-out: BAY-1251152 (10 µM) / %Intensity relative to DMSO

Sequence of Mitogen-activated protein kinase 1 ; MAPK1 ; P28482 (P28482 whole entry): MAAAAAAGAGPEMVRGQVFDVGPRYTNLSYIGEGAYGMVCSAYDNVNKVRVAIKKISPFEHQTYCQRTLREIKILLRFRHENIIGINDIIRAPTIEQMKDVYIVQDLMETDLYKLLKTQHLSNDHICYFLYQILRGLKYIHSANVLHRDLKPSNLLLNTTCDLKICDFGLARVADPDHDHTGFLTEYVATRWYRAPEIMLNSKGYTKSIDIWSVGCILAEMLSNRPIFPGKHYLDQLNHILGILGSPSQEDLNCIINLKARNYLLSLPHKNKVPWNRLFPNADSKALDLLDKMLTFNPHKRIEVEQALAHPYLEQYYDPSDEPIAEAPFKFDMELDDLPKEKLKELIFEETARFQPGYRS
Sequence of Serine/threonine-protein kinase 35 ; STK35 ; Q8TDR2 (Q8TDR2 whole entry, one chain of several): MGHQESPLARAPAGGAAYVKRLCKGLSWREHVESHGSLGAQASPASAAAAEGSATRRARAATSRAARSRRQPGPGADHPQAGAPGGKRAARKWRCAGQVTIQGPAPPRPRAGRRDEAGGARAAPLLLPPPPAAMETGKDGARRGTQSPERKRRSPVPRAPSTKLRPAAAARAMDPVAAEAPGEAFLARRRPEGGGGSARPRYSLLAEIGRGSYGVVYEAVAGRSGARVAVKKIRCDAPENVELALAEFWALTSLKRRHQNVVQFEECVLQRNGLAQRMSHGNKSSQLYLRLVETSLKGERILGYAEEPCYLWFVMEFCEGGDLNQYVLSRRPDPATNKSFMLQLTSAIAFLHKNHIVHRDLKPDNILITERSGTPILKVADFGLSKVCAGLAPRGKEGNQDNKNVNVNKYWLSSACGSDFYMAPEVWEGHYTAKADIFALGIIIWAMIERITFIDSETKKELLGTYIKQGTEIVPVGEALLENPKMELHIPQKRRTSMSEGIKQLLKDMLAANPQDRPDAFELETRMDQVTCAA
Sequence of Pyridoxal kinase ; PDXK ; O00764 (O00764 whole entry): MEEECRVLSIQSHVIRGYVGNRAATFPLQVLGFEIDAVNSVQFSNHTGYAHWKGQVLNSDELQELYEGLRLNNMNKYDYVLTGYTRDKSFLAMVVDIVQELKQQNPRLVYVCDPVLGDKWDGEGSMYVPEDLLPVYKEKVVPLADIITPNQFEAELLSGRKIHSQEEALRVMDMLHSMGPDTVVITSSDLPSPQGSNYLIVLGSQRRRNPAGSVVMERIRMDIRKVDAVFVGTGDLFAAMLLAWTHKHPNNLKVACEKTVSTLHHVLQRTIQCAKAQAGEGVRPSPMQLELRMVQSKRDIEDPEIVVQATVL
Sequence of Serine/threonine-protein kinase LATS1 ; LATS1 ; O95835 (O95835 whole entry, one chain of several): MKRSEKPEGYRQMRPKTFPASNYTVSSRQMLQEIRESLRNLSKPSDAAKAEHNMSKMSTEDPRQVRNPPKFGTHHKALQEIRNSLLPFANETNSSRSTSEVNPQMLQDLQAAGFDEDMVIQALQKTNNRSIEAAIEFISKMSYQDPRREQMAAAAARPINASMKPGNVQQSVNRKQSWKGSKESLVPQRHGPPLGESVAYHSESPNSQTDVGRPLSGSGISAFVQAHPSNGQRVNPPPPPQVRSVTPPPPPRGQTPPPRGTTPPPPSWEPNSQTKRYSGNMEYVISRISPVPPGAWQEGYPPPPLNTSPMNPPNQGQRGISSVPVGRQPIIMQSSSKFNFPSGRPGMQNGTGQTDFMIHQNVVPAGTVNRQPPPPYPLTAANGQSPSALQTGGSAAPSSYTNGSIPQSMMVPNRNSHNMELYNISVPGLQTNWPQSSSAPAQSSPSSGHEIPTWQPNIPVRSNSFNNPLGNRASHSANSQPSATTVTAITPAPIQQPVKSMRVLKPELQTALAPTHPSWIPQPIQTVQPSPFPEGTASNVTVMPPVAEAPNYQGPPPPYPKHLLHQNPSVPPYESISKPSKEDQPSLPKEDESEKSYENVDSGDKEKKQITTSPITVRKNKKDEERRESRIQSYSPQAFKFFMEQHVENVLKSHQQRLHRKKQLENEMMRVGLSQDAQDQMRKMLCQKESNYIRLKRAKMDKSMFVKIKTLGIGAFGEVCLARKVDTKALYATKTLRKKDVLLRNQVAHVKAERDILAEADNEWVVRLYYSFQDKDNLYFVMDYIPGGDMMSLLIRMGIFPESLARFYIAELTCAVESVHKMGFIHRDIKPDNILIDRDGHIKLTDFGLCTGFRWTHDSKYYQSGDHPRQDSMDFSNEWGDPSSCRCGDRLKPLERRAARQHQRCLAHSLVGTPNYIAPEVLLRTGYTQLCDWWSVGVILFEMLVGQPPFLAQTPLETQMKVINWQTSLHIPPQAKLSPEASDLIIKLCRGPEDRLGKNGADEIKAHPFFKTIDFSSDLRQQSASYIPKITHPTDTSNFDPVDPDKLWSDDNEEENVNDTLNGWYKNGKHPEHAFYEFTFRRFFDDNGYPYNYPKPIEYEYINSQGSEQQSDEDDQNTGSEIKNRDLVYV
Sequence of Serine/threonine-protein kinase 17B ; STK17B ; O94768 (O94768 whole entry, one chain of several): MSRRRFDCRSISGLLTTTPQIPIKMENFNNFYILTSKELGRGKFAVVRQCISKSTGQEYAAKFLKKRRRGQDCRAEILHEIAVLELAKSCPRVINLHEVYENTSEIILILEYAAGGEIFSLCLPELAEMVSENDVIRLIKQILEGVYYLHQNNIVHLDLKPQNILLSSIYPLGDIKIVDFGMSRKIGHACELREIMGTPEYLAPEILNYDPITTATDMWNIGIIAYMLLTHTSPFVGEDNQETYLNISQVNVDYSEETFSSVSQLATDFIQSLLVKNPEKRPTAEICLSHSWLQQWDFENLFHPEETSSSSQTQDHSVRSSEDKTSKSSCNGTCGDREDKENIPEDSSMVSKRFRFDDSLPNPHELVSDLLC
Sequence of MAP/microtubule affinity-regulating kinase 4 ; MARK4 ; Q96L34 (Q96L34 whole entry, one chain of several): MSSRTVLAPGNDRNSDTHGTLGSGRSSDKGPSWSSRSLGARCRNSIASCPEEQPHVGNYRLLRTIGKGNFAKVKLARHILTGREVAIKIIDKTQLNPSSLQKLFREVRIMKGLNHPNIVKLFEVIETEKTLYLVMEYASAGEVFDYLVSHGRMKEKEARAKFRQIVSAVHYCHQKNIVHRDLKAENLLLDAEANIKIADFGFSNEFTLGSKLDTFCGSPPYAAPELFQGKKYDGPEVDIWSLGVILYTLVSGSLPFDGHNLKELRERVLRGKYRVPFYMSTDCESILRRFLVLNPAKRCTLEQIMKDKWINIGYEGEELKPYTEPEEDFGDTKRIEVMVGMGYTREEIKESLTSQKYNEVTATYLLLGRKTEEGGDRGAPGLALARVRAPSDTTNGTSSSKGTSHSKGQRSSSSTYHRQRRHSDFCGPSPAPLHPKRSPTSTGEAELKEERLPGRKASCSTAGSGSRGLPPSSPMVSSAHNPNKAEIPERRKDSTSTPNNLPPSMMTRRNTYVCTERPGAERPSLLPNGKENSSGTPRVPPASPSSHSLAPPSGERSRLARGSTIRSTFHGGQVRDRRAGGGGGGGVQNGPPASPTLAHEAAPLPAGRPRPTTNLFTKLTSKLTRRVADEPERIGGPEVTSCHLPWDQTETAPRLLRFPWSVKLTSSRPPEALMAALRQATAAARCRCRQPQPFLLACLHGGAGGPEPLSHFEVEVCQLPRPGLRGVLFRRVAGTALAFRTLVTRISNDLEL
Sequence of Isoform 6 of Tyrosine-protein kinase ABL2 ; ABL2 ; P42684-6 (P42684 whole entry, canonical isoform): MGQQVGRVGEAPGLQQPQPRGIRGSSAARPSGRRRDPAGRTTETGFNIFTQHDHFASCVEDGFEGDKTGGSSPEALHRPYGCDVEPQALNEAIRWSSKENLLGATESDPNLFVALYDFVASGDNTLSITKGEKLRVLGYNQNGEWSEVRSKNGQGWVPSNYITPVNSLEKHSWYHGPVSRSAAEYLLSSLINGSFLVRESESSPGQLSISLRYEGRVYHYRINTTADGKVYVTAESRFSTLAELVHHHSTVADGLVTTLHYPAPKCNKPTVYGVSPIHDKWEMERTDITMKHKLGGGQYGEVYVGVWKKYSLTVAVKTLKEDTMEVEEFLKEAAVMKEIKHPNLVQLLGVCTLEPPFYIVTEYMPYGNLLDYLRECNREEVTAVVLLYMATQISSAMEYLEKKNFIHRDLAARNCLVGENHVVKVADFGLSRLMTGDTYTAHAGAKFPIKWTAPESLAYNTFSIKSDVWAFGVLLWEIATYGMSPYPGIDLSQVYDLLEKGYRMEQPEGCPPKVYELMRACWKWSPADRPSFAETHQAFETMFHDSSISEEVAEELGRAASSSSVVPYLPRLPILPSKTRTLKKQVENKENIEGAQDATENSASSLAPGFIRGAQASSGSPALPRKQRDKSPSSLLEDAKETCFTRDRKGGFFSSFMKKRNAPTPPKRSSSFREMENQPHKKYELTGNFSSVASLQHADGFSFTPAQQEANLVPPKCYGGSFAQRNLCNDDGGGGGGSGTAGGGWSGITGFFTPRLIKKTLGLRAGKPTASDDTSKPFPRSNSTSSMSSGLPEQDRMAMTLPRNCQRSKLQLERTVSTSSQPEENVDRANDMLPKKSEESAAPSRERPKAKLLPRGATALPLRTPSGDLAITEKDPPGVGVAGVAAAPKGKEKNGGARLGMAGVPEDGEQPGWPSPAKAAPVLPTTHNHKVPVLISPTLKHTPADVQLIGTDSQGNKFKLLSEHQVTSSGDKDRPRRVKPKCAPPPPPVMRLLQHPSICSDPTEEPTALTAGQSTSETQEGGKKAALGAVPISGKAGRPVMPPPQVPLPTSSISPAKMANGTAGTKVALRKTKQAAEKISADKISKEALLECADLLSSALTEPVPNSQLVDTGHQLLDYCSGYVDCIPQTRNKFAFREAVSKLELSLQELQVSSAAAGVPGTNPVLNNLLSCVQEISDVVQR
Sequence of Aurora kinase C ; AURKC ; Q9UQB9 (Q9UQB9 whole entry): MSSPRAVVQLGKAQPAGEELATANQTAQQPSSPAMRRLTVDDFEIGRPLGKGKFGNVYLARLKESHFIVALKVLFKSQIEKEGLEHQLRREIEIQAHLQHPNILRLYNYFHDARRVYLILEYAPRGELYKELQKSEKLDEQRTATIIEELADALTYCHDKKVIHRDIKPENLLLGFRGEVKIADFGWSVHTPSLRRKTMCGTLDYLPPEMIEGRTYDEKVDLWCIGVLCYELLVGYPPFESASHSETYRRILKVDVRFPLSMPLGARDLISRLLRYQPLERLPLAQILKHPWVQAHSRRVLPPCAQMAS

COc1cc(F)ccc1-c1ncnc(Nc2cccc(C[S@](C)(=N)=O)c2)n1 [BAY-1143572]
remaining activity at 10 µM [1, 25]: 112%
remaining activity at 10 µM [2, 25]: 90.7%
remaining activity at 10 µM [3, 25]: 105%
remaining activity at 10 µM [4, 25]: 131%
remaining activity at 10 µM [5, 25]: 115%
remaining activity at 10 µM [6, 25]: 156%
remaining activity at 10 µM [7, 25]: 106%
remaining activity at 10 µM [8, 25]: 108%
remaining activity at 10 µM [9, 25]: 112%
remaining activity at 10 µM [10, 25]: 118%
remaining activity at 10 µM [11, 25]: 110%
remaining activity at 10 µM [12, 25]: 108%
remaining activity at 10 µM [13, 25]: 111%
remaining activity at 10 µM [14, 25]: 139%
remaining activity at 10 µM [15, 25]: 94.7%
remaining activity at 10 µM [16, 25]: 110%
remaining activity at 10 µM [17, 25]: 114%
remaining activity at 10 µM [18, 25]: 59.1%
remaining activity at 10 µM [19, 25]: 133%
remaining activity at 10 µM [20, 25]: 42.2%
remaining activity at 10 µM [21, 25]: 113%
remaining activity at 10 µM [22, 25]: 164%
remaining activity at 10 µM [23, 25]: 116%
remaining activity at 10 µM [24, 25]: 93.7%

COc1cc(F)ccc1-c1cc(Nc2cc(CS(C)(=N)=O)ccn2)ncc1F (stereo not drawn) [BAY-1251152]
remaining activity at 10 µM [1, 26]: 105%
remaining activity at 10 µM [2, 26]: 108%
remaining activity at 10 µM [3, 26]: 41.7%
remaining activity at 10 µM [4, 26]: 146%
remaining activity at 10 µM [5, 26]: 113%
remaining activity at 10 µM [6, 26]: 137%
remaining activity at 10 µM [7, 26]: 94%
remaining activity at 10 µM [8, 26]: 99.3%
remaining activity at 10 µM [9, 26]: 106%
remaining activity at 10 µM [10, 26]: 114%
remaining activity at 10 µM [11, 26]: 115%
remaining activity at 10 µM [12, 26]: 107%
remaining activity at 10 µM [13, 26]: 101%
remaining activity at 10 µM [14, 26]: 119%
remaining activity at 10 µM [15, 26]: 94%
remaining activity at 10 µM [16, 26]: 105%
remaining activity at 10 µM [17, 26]: 106%
remaining activity at 10 µM [18, 26]: 69.2%
remaining activity at 10 µM [19, 26]: 118%
remaining activity at 10 µM [20, 26]: 32.9%
remaining activity at 10 µM [21, 26]: 109%
remaining activity at 10 µM [22, 26]: 122%
remaining activity at 10 µM [23, 26]: 107%
remaining activity at 10 µM [24, 26]: 94.5%
